Laboratory results from US7244712B2, “Aminoglycoside antibiotics and methods of using same” (priority 2004, dated 2007).
Where two headings read alike, the source gives them in different places.

Assays:
[1] = biological target: human A-site decoding region construct (H), D-RNA; assay: Fluorescence anisotropy binding, D-RNA human A-site decoding region construct H
Excerpt: (§1) Experiments were designed to probe the stereospecificity of aminoglycoside binding to the RNA constructs shown in FIG. 9 because these small rRNA constructs mimic ribosomal decoding region RNA function. The three constructs shown include a bacterial 16S A-site rRNA construct (B) (27), its human counterpart (H), and an RNA aptamer (J6f1) selected to bind to the aminoglycoside tobramycin (12,15,16).
(§2) L-aminoglycoside binding to D-RNA sequences are energetically equivalent to binding the enantiotopic D-aminoglycoside to an L-RNA sequence. Initial binding experiments were carried out using enantiomerically pure L-RNA constructs, B, H, and J6f1 (FIG. 9A-C) and D-aminoglycoside compounds. Circular dichroism spectra of the purified constructs confirm the enantiomeric relationship of the corresponding D-RNA and L-RNA constructs (FIGS. 1A-C). The constructs were tested for aminoglycoside binding using the fluorescence anisotropy method described in Example 4. In these measurements, the fluorescent aminoglycoside CRP bearing a rhodamine chromaphore is used to monitor binding to the decoding region constructs (B and H) and fluorescent aminoglycoside CRT bearing a rhodamine chromaphore was used to monitor binding to RNA construct J6f1 (FIG. 9C). See, for example, Wang, Y. and Rando, R. R. Chem. Biol. (1995) 2, 281-290; Hamasaki, K., Killian, J. Cho, J., and Rando, R. R. Biochemistry (1998) 37, 656-663; and Cho, J. and Rando, R. R. (1999) Biochemistry 38, 8548-8554.
(§3) 5-Carboxytetramethylrhodamine-labeled paromomycin (CRP) and tobramycin (CRT) concentrations were determined spectroscopically at 550 nm using a molar extinction coefficient of 6.00×10 4 M −1 cm −1. Fluorescence anisotropy measurements were performed on a Perkin-Elmer LS-50B luminescence spectrometer equipped with a thermostat accurate to ±0.1° C. as indicated previously (Wang, Y., Hamasaki, K., & Rando, R. R. (1997) Biochemistry 36, 768-779). The tracer solution was excited at 550 nm and monitored at 580 nm. The integration time was 5 s. […]
(§4) Equation 1 was used for the determination of the dissociation constant (Kd) for the interactions between RNA or ribosome and CRP. A=A0+DA{(RNA)0+(CRP)0+Kd−({(RNA)0+(CRP)0+Kd}^2−4(RNA)0(CRP)0)½}/2 where A and A0 are the fluorescence anisotropy of CRP in the presence and absence of RNA, respectively, and DA is the difference between the fluorescence anisotropy of CRP in the presence of an extrapolated infinite concentration of RNA minus the fluorescence anisotropy in the absence of RNA. […]
(§5) Equation 2 is used for the calculation of the KD values in the competition binding assay. […] Both Kd and KD were determined by non-linear curve fitting using the equations described above, and are presented as mean values of three independent measurements.

80S ribosome = assay: Fluorescence anisotropy binding to 80S ribosomes; set-up: species or system yeast (S. cerevisiae); conditions: yeast ribosomes
Protocol: (§6) After establishing the lack of stereospecificity in the binding of aminoglycosides to the A-site RNA constructs (FIG. 9A-C) where the binding affinity, KD, is about 0.1 μM to about 100 μM, the stereospecificity of aminoglycoside binding to intact ribosomes was determined. Both yeast and E. coli ribosomes were prepared and aminoglycoside binding was measured using fluorescence anisotropy methods. For example, fluorescence anisotropy methods recited in Wang, Y., and Rando, R. R. Chem. Biol. (1995) 2, 281-290; and Wang, Y., Hamasaki, K., and Rando, R. R. Biochemistry (1997) 36,768-779. CRP was used as the binding probe. […] Binding data reported herein for aminoglycoside compounds with eukaryotic yeast ribosomes are similar to binding data for said aminoglycoside compounds with ribosoimes in bacteria and with eukaryotic A-site rRNA constructs.
(§7) 5-Carboxytetramethylrhodamine-labeled paromomycin (CRP) and tobramycin (CRT) concentrations were determined spectroscopically at 550 nm using a molar extinction coefficient of 6.00×10 4 M −1 cm −1. Fluorescence anisotropy measurements were performed on a Perkin-Elmer LS-50B luminescence spectrometer equipped with a thermostat accurate to ±0.1° C. as indicated previously (Wang, Y., Hamasaki, K., & Rando, R. R. (1997) Biochemistry 36, 768-779). The tracer solution was excited at 550 nm and monitored at 580 nm. The integration time was 5 s. For every point, 6 measurements were taken, and their average values were used for calculation. Measurements were carried out in a buffer solution containing 150 mM NaCl, 5 mM KCl, 1 mM CaCl2, 1 mM MgCl2, and 20 mM HEPES (pH 7.5). Prior to measurements, RNA constructs were renatured by incubating in binding buffer {150 mM NaCl, 5 mM KCl, 1 mM CaCl2, 1 mM MgCl2, and 20 mM HEPES (pH 7.5)} for 3 minutes at 90° C. followed by slow cooling to 25° C.
(§8) Equation 1 was used for the determination of the dissociation constant (Kd) for the interactions between RNA or ribosome and CRP. A=A0+DA{(RNA)0+(CRP)0+Kd−({(RNA)0+(CRP)0+Kd}^2−4(RNA)0(CRP)0)½}/2 where A and A0 are the fluorescence anisotropy of CRP in the presence and absence of RNA, respectively, and DA is the difference between the fluorescence anisotropy of CRP in the presence of an extrapolated infinite concentration of RNA minus the fluorescence anisotropy in the absence of RNA. (RNA)0 and (CRP)0 are the initial concentrations of RNA and CRP, respectively.
(§9) Equation 2 is used for the calculation of the KD values in the competition binding assay. (aminoglycoside)0={KD(A−−A)/Kd(A−A0)+1}{(RNA)0−Kd(A−A0)/(A−−A)−(CRP)0(A−A0)/(A−−A)} where KD is the dissociation constant between the RNA and the aminoglycosides; (aminoglycoside)0 is the initial concentration of the aminoglycosides; AL is anisotropy of completely bound tracer. Both Kd and KD were determined by non-linear curve fitting using the equations described above, and are presented as mean values of three independent measurements.
The purification of yeast 80S ribosomes from S. cerevisiae strain YSB 758 was carried out according to the published procedure (Verschoor, A., Warner, J. R., Srivastava, S., Grassucci, R. A., & Frank, J. (1997) Nucl. Acid Res. 26, 655-661). S. cerevisiea YSB 758 were grown for 12 hrs at 30° C. in 2L of YPD medium, containing: 20 g bacto peptone, 20 g glucose, 10 g yeast extract and 0.15 g tryptophan per 1 L, pH 7.0. The cells were lysed by 5-10 cycles of 1 min vigorous shaking with glass beads with a vortex, followed by cooling on ice. Clarified cell extract (about 9 mL total, used in 6 portions in 1.5 mL aliqouts) was carefully loaded on top of 2 mL of a cushion, composed of 10% sucrose and 5% ammonium sulfate dissolved in buffer YR1 (20 mM HEPES pH=7.4, 16 mM magnesium chloride, 100 mM potassium chloride, 5 mM DTT, and 0.5 mM EDTA). The ribosomes were collected by centrifugation in Beckman TL100.3 rotor at 75000 rpm for 3 h. The supernatants were carefully discarded and ribosomes were collected in buffer YR1. […]

70S ribosome = assay: Fluorescence anisotropy binding to 70S ribosomes; conditions: E. coli ribosomes
Protocol: as §6, §7, §8, §9
The purification of E. coli (E600) 70S ribosomes was carried out according to the published procedure (Lazaro, E., van den Broek, L. A. G. M., Felix, A. S., Ottenheijm, H. C. J., Ballesta, J. P. G. (1991) Biochemistry 30, 9642-9648). E. coli MRE600 were grown for 12 h in 6L of LB medium (10 g trypton, 5 g yeast extract, 5 g NaCl per 1 L, pH 7.0) at 37° C. Crude ribosomes were precipitated from clarified supernatant by 4 h centrifugation at 25,000 rpm in Beckman SW 28 rotor at 4° C. The ribosome pellets were collected in 5 mL of buffer BR1, containing 10 mM HEPES, pH 7.5, 500 mM ammonium acetate, 100 mM magnesium chloride and 2.5 mM DTT. The ribosome suspension was centrifuged for 20 min at 15000 rpm to be clarified. The clarified sample was loaded over two layers of 20% and 40% sucrose in buffer BR1 and centrifuged for 18 hr at 19000 rpm in Beckman SW28 rotor at 4° C. […]

[2] = biological target: bacterial 16S A-site rRNA construct (B), L-RNA; assay: Fluorescence anisotropy binding, L-RNA bacterial A-site decoding region construct B
Excerpt: as §1, §2, §3, §4, §5

[3] = biological target: bacterial 16S A-site rRNA construct (B), D-RNA; assay: Fluorescence anisotropy binding, D-RNA bacterial A-site decoding region construct B
Excerpt: as §1, §2, §3, §4, §5

[4] = biological target: human A-site decoding region construct (H), L-RNA; assay: Fluorescence anisotropy binding, L-RNA human A-site decoding region construct H
Excerpt: as §1, §2, §3, §4, §5

RNA aptamer J6f1, L-RNA = assay: Fluorescence anisotropy binding, L-J6f1 tobramycin binding aptamer
Excerpt: as §1, §2, §7, §8, §5

RNA aptamer J6f1, D-RNA = assay: Fluorescence anisotropy binding, D-J6f1 tobramycin binding aptamer
Excerpt: as §1, §2, §3, §4, §5

[5] = system: E. coli S30 extract, containing 70S ribosomes; assay: In vitro protein translation (CAT mRNA, 35S methionine incorporation); type: biochemical; conditions: quantitation of gel bands, read-out: IC50, concentration producing 50% inhibition of translation
Protocol: Protein translation was performed from chloramphenicol acetyl transferase (CAT) mRNA. […] A commercial E. coli ribosomal suspension was supplemented with an E. coli extract containing the required elements for translation. These include translation factors, tRNAs, and aminoacyl tRNA synthases. Plasmid, T7 RNA polymerase and amino acids were added to the reaction mixture, and both transcription and translation steps were performed in the same vial. The effects of the aminoglycosides on the translation process were evaluated by measuring the incorporation of ^35S methionine in the translated chloramphenicol acetyl transferase protein.
In vitro translation was performed by using PROTEINscript™-PRO (Ambion) kit. […] Reaction mixtures contained appropriate concentrations of antibiotic (neomycin B, D- and L-neamine). The protein was translated from CAT mRNA, transcribed from control DNA template containing CAT gene under control of the T7 promotor. The product, ˜25 kDa chloramphenicol acetyl transferase, was labeled during translation with 1 μCi ^35S methionine (New England Nuclear) per reaction (no cold methionine was added).
Following the translation, the samples were analyzed by electrophoresis on 4-20% SDS mini-gels (Invitrogen) for 1.5 h at 120V. Gels were fixed with 40% methanol/10% acetic acid and exposed to Molecular Dynamics phosphoimager plates, which were read on a Personal FX phosphoimager (Bio-Rad) and quantitated using QuantityOne™ software.

[6] = competition with CRP, read-out: Dissociation constant (KD) with 80S ribosome
[7] = competition with CRP, read-out: Dissociation constant (KD) with 70S ribosome
[8] = competition with CRP, read-out: Dissociation constant of aminoglycoside complex with D-H
[9] = competition with CRT, read-out: Dissociation constant of aminoglycoside complex with L-J6f1
[10] = competition with CRP, read-out: Dissociation constant of aminoglycoside complex with L-B
[11] = competition with CRP, read-out: Dissociation constant of aminoglycoside complex with D-B
[12] = competition with CRP, read-out: Dissociation constant of aminoglycoside complex with L-H
[13] = competition with CRT, read-out: Dissociation constant of aminoglycoside complex with D-J6f1

| Compound | Kd (80S ribosome; [6]) [nM] | Kd (70S ribosome; [7]) [nM] | Kd [1, 8] [nM] | Kd (RNA aptamer J6f1, L-RNA; [9]) [nM] | Kd [2, 10] [nM] | Kd [3, 11] [nM] | Kd [4, 12] [nM] | other results |
| --- | --- | --- | --- | --- | --- | --- | --- | --- |
| 5-carboxytetramethyl rhodamine-labeled paromomycin [CRP] | – | – | – | – | – | – | – | Kd ([1]; direct binding of fluorescent tracer CRP, read-out: Dissociation constant of CRP complex with D-H): 1360 ± 180 nM; Kd (80S ribosome; direct binding of CRP, read-out: Dissociation constant (Kd) of CRP with 80S Ribosome): 3.2 ± 0.9 nM; Kd (70S ribosome; direct binding of CRP, read-out: Dissociation constant (Kd) of CRP with 70S Ribosome): 3.7 ± 1.1 nM; Kd ([2]; direct binding of fluorescent tracer CRP, read-out: Dissociation constant of CRP complex with L-B): 224 ± 22.6 nM; Kd ([3]; direct binding of fluorescent tracer CRP, read-out: Dissociation constant of CRP complex with D-B): 170 ± 17.5 nM; Kd ([4]; direct binding of fluorescent tracer CRP, read-out: Dissociation constant of CRP complex with L-H): 900 ± 76 nM |
| 5-carboxytetramethyl rhodamine-labeled tobramycin [CRT] | – | – | – | – | – | – | – | Kd (RNA aptamer J6f1, L-RNA; direct binding of fluorescent tracer CRT, read-out: Dissociation constant of CRT complex with L-J6f1): 200 ± 28 nM; Kd (RNA aptamer J6f1, D-RNA; direct binding of fluorescent tracer CRT, read-out: Dissociation constant of CRT complex with D-J6f1): 190 ± 11 nM |
| NCC1OC(OC2C(N)CC(N)C(O)C2O)C(N)C(O)C1O (single isomer, unassigned) [4-Isomer of L-Neamine (ent-3), 4-isomer of L-Neamine] | 33000 ± 5840 | 6400 ± 870 | – | – | – | – | – | – |
| NCC1OC(OC2C(O)C(N)CC(N)C2O)C(N)C(O)C1O (single isomer, unassigned) [5-Isomer of L-Neamine (ent-2), 5-isomer of L-Neamine] | 1530 ± 120 | 1550 ± 110 | – | – | – | – | – | – |
| NCC1OC(OC2C(O)C(N)CC(N)C2O)C(N)C(O)C1O [5-Isomer of D-Neamine (2), 5-isomer of D-Neamine] | 2220 ± 110 | 910 ± 130 | – | – | – | – | – | – |
| NCC1OC(OC2C(N)CC(N)C(O)C2O)C(N)C(O)C1O [6-Isomer of D-Neamine (3), 6-isomer of D-Neamine] | 22500 ± 1250 | 30700 ± 1700 | – | – | – | – | – | – |
| NC[C@@H]1O[C@H](O[C@H]2[C@@H](O)[C@H](O[C@@H]3[C@@H](O)[C@H](N)C[C@H](N)[C@H]3O[C@H]3O[C@H](CO)[C@@H](O)[C@H](O)[C@H]3N)O[C@@H]2CO)[C@H](N)[C@@H](O)[C@@H]1O [Paromomycin] | 1970 ± 100 | 1410 ± 150 | 2200 ± 170 | 4600 ± 370 | 6380 ± 270 | 1650 ± 350 | 2760 ± 260 | – |
| [H]/N=C(/N)N[C@H]1[C@H](O)[C@@H](O)[C@H](O[C@@H]2O[C@@H](C)[C@](O)(C=O)[C@H]2O[C@@H]2O[C@@H](CO)[C@H](O)[C@@H](O)[C@@H]2NC)[C@@H](N/C(N)=N\[H])[C@@H]1O [Streptomycin] | 30500 | – | – | – | – | – | – | Dissociation constant (KD) with 70S ribosome (70S ribosome; competition with CRP): did not exhibit measurable binding |
| NC[C@H]1O[C@H](O[C@H]2[C@H](O)[C@@H](O[C@H]3O[C@H](CO)[C@@H](O)[C@H](N)[C@H]3O)[C@H](N)C[C@@H]2N)[C@H](N)C[C@@H]1O [Tobramycin] | 3690 ± 310 | 1760 ± 380 | 1570 ± 210 | 2180 ± 230 | 4390 ± 370 | 1400 ± 240 | 3220 ± 260 | Kd (RNA aptamer J6f1, L-RNA; competition with CRT, listed as tobramycin, read-out: Dissociation constant of aminoglycoside complex with L-J6f1): 2200 nM; Kd (RNA aptamer J6f1, D-RNA; [13]): 5.2 ± 0.42 nM; Kd (RNA aptamer J6f1, D-RNA; read-out: KD of tobramycin with RNA aptamer J6f1): 5 nM |
| Neomycin | 110 ± 14 | 140 ± 38 | 260 ± 3.6 | 360 ± 21 | 109 ± 4.6 | 52 ± 1.86 | 1410 ± 14 | Kd (70S ribosome; competition with CRP, listed as neomycin B, read-out: Dissociation constant (KD) with 70S ribosome): ~100 nM; Kd (RNA aptamer J6f1, D-RNA; [13]): 5590 ± 1390 nM; IC50 [5]: 15000 nM |
